Results reported in patent publication US20090238792A1, “SUPPRESSION OF POSTOPERATIVE ILEUS” (University of Pittsburgh of the Commonwealth System of …, priority 2007, published 2009).

Legend:
Assay type in all cases: in vivo, rat
[1] = system: MPO positive leukocytes in the intestinal muscularis; experiment: Myeloperoxidase (MPO) histochemistry: leukocyte infiltration in muscularis whole-mounts; settings: for infiltrating MPO positive leukocytes: manipulated rats, 24 h postoperatively, SM vehicle 95±6.4
Procedure: (§1) Age matched animals treated with vehicle (normal saline) or valine (263.5 mg/kg, osmotic control) at appropriate time points and at equal volumes served as controls.
(§2) The rodent intestine was subjected to a standardized degree of surgical manipulation as described previously (14). Rats were anesthetized by isoflurane inhalation and the abdomen was opened by a midline laparotomy. The cecum was eventrated and laid out onto a moist gauze. Then, the intestine was inspected along its length and gently compressed using moist cotton applicators. The midline incision was closed by two layers of continuous sutures. All operative procedures were performed under sterile conditions with the intestine being handled only by instruments and never touched directly. Animals were killed at specific time points postoperatively by isoflurane anesthesia inhalation overdose and heart incision.
Histochemistry and Immunohistochemistry: Leukocyte infiltration was quantified on rat whole-mounts of the intestinal muscularis as described previously (N=6-8) (43). Myeloperoxidase (MPO) positive cells were detected using a mixture of 30 mg Hanker-Yates reagent, 30 ml KRB and […] 3% hydrogen peroxide for 10 minutes. Leukocytes were counted in 5 randomly chosen areas in each specimen (3 specimen per animal) at a magnification of 200×.
(§3) Methods: ACI-rats (180-220 g) underwent standardized surgical manipulation of the intestine. […] Age matched animals treated with vehicle or valine (osmotic control) at appropriate time points and at equal volumes served as controls. […] Postoperative mediator mRNA expression in the intestinal muscularis was determined by real-time RT PCR. Leukocyte extravasation was investigated in muscularis whole-mounts. Nitrite production was measured in muscularis cultures. In vivo transit of FITC-dextran was measured using geometric center analysis (GC). In vitro circular muscle contractility was assessed in a standard organ bath. Statistical analysis: unpaired Student t test, p<0.05, mean±SEM.

nitrite (nitric oxide) = experiment: Nitrite release (Griess reaction) from organ cultured muscularis
Procedure: as §1, §2
Tissue culture and determination of nitrite and prostanoid release in supernatant: The rat small intestine and colon were processed for tissue culture at 24 hours as described previously, (N=5-8) (25). Briefly, the muscularis was isolated by stripping the muscularis from the mucosa and then cut into small pieces and washed twice in Hank's balanced salt solution (HBSS) with 100 U/ml penicillin G and 100 μg/ml streptomycin. Aliquots of muscularis ([…]) were incubated (37° C., 5% CO2) in 6-well tissue culture plates containing 3 ml of supplemented Dulbecco's modified Eagle medium (DMEM)-F12 with 100 U/ml penicillin G and 100 μg/ml streptomycin. After an incubation period of 24 hours, 500 μl aliquots of supernatant were collected, frozen in liquid nitrogen and stored at −80° C. The muscle tissue was blotted dry, and the weight was estimated. To estimate the generation of NO from the intestinal muscularis, nitrite production was measured by the Griess reaction (44). Supernatant from the tissue culture was mixed with equal amount of Griess reagent (0.1% N-(1-naphtyl)ethyl-enediamine dihydrochloride and 1% sulfanilamide in 6% phosphoric acid; 1:1) and incubated at room temperature for 10 minutes. The absorbance at 550 nm was measured with a microplate reader and compared with standard prepared from serial dilutions of sodium nitrite. Each standard and supernatant sample was analyzed in duplicate, and the mean value of nitrite production was normalized to the tissue weight.
as §3

[2] = system: jejunal circular smooth muscle; experiment: In vitro bethanechol stimulated contractile activity of jejunal circular muscle strips; settings: for mean contractile force, bethanechol stimulated: manipulated rats, 100 mM bethanechol, control 3.2±0.2, SM vehicle 1.9±0.1
Procedure: as §1, §2
Mechanical in vitro activity of the rat mid-jejunum was evaluated at 24 hours postoperatively using smooth muscle strips of the circular muscularis as described previously (rats: N=5-11) (14). After dissection and a 30 minute equilibration period, the individual muscles were incrementally stretched to L0. Then after recording spontaneous contractility for 30 minutes, dose response curves were generated using increasing concentrations of the muscarinic agonist bethanechol ([…]) for 10 minutes and intervening wash periods (KRB) of 10 minutes. The contractile response was recorded and analyzed as g/mm2/sec over a 10 minute period.
as §3

NCC(=O)O [glycine]
reduction of infiltrating leukocytes compared to manipulated vehicle pretreated rats ([1]; glycine 85 mg/kg): 18% | reduction of infiltrating leukocytes compared to manipulated vehicle pretreated rats ([1]; glycine 170 mg/kg): 27% | infiltrating MPO positive leukocytes ([1]; 85 mg/kg glycine): 78±5.1 cells/field at 200× | infiltrating MPO positive leukocytes ([1]; glycine 170 mg/kg or valine (263.5 mg/kg)): 69±5.7 cells/field at 200× | MPO positive cells ([1]; rats without intestinal manipulation, glycine injected, vehicle 2±0.9): 2±0.5 cells/field at 200× magnification | attenuation of postoperative increase in nitrite production (nitrite (nitric oxide); Example 5, muscularis cultures, glycine (170 mg) i.v. 1 hour prior to surgery): 39% | nitrite release, fold increase over control, colon (nitrite (nitric oxide); manipulated rats, colonic muscularis 24 h organ culture, glycine 170 mg/kg or valine, SM vehicle 10.9-fold): 2.5 fold | nitrite release, fold increase over control, jejunum (nitrite (nitric oxide); manipulated rats, jejunal muscularis 24 h organ culture, glycine 170 mg/kg or valine, SM vehicle 11.4-fold): 2.7 fold | Griess reaction measurements from the unmanipulated muscularis (nitrite (nitric oxide); unmanipulated, glycine 170 mg/kg): no significant effects | amelioration of postoperative muscularis contractility ([2]; Example 5, glycine (170 mg) i.v. 1 hour prior to surgery): 54% | mean contractile force, bethanechol stimulated ([2]; 85 mg/kg glycine): 2.4±0.3 g/mm2/s | mean contractile force, bethanechol stimulated ([2]; 170 mg/kg glycine or valine pretreatment): 2.9±0.3 g/mm2/s
